Laboratory results as given in ChEMBL document CHEMBL1156251, “Structure--activity relationships of polymyxin antibiotics” (J Med Chem, 2010).
≈ marks a conversion by molar mass, not a printed value. Where a SMILES comes first, the peptide text is derived from it. Bridges are numbered along the chain shown (N, C = ends). [ ]: non-standard residue; d: D form. The star is where a group is joined. Heptanoyl(6-Me) = CC(C)CCCCC(=O)*; Heptanoyl = CCCCCCC(=O)*; Dab = NCC[C@H](N)C(=O)O

What was measured:
Pseudomonas aeruginosa = assay: Antimicrobial activity against Pseudomonas aeruginosa; type: functional, organism-based
Escherichia coli = assay: Antimicrobial activity against Escherichia coli; type: functional
Lipopolysaccharide (LPS) = assay: Displacement of dansyl-PMB from LPS by isothermal titration calorimetry
Salmonella enterica = assay: Antimicrobial activity against Salmonella enterica; type: functional

SMILES	MIC (Pseudomonas aeruginosa)	MIC (Escherichia coli)	IC50 (Lipopolysaccharide (LPS))	MIC (Salmonella enterica)
CC(C)C[C@@H]1NC(=O)[C@@H](Cc2ccccc2)NC(=O)[C@H](CCN)NC(=O)[C@@H](NC(=O)[C@H](CCN)NC(=O)[C@@H](NC(=O)[C@H](Cc2ccccc2)NC(=O)O)[C@@H](C)O)CCNC(=O)[C@H]([C@@H](C)O)NC(=O)[C@H](CCN)NC(=O)[C@H](CCN)NC1=O [DESFA-[PHE1]POLYMYXIN B]	16 µM (≈ 18.5 µg/mL)	8 µM (≈ 9.23 µg/mL)	>= 32 nmol/ml	8 µM (≈ 9.23 µg/mL)
CC(C)CCCCC(=O)N[C@@H](CCN)C(=O)N[C@H](C(=O)N[C@@H](CCN)C(=O)N[C@H]1CCNC(=O)[C@H]([C@@H](C)O)NC(=O)[C@H](CCN)NC(=O)[C@H](CCN)NC(=O)[C@H](CC(C)C)NC(=O)[C@@H](Cc2ccccc2)NC(=O)[C@H](CCN)NC1=O)[C@@H](C)O [POLYMYXIN B2] ({Heptanoyl(6-Me)}-[Dab]T[Dab][Dab][Dab][dF]L[Dab][Dab]T; lactam 4-C)	1 µM (≈ 1.19 µg/mL)	1 µM (≈ 1.19 µg/mL)	9 nmol/mL	1 µM (≈ 1.19 µg/mL)
CCCCCCCC(=O)N[C@@H](CCN)C(=O)N[C@H](C(=O)N[C@@H](CCN)C(=O)N[C@H]1CCNC(=O)[C@@H]([C@@H](C)O)NC(=O)[C@H](CCN)NC(=O)[C@H](CCN)NC(=O)[C@H](CC(C)C)NC(=O)[C@@H](Cc2ccccc2)NC(=O)[C@H](CCN)NC1=O)[C@@H](C)O [POLYMYXIN B3]	1 µM (≈ 1.19 µg/mL)	0.5 µM (≈ 0.595 µg/mL)	8 nmol/mL	0.5 µM (≈ 0.595 µg/mL)
CCCCCCC(=O)N[C@@H](CCN)C(=O)N[C@H](C(=O)N[C@@H](CCN)C(=O)N[C@H]1CCNC(=O)[C@H]([C@@H](C)O)NC(=O)[C@H](CCN)NC(=O)[C@H](CCN)NC(=O)[C@H](CC(C)C)NC(=O)[C@@H](Cc2ccccc2)NC(=O)[C@H](CCN)NC1=O)[C@@H](C)O [POLYMYXIN B4] (Heptanoyl-[Dab]T[Dab][Dab][Dab][dF]L[Dab][Dab]T; lactam 4-C)	0.5 µM (≈ 0.588 µg/mL)	0.5 µM (≈ 0.588 µg/mL)	10 nmol/mL	0.5 µM (≈ 0.588 µg/mL)

The next lines start with the values.

MIC (Pseudomonas aeruginosa)	MIC (Escherichia coli)	IC50 (Lipopolysaccharide (LPS))	MIC (Salmonella enterica)	SMILES
256 µM (≈ 291 µg/mL)	≥ 256 µM	>= 32 nmol/ml	> 256 µM	CC(C)C[C@@H]1NC(=O)[C@@H](Cc2ccccc2)NC(=O)[C@H](CCN)NC(=O)[C@@H](NC(=O)[C@H](CCN)NC(=O)[C@@H](NC(=O)[C@H](CCC(=O)O)NC(=O)O)[C@@H](C)O)CCNC(=O)[C@H]([C@@H](C)O)NC(=O)[C@H](CCN)NC(=O)[C@H](CCN)NC1=O [DESFA-[GLU1]POLYMYXIN B]
64 µM (≈ 71.7 µg/mL)	16 µM (≈ 17.9 µg/mL)	>= 32 nmol/ml	32 µM (≈ 35.9 µg/mL)	CC(C)C[C@H](NC(=O)O)C(=O)N[C@H](C(=O)N[C@@H](CCN)C(=O)N[C@H]1CCNC(=O)[C@H]([C@@H](C)O)NC(=O)[C@H](CCN)NC(=O)[C@H](CCN)NC(=O)[C@H](CC(C)C)NC(=O)[C@@H](Cc2ccccc2)NC(=O)[C@H](CCN)NC1=O)[C@@H](C)O [DESFA-[LEU1]POLYMYXIN B]
32 µM (≈ 36.3 µg/mL)	16 µM (≈ 18.2 µg/mL)	22 nmol/mL	32 µM (≈ 36.3 µg/mL)	CC(C)C[C@@H]1NC(=O)[C@@H](Cc2ccccc2)NC(=O)[C@H](CCN)NC(=O)[C@@H](NC(=O)[C@H](CCN)NC(=O)[C@@H](NC(=O)[C@H](CCCCN)NC(=O)O)[C@@H](C)O)CCNC(=O)[C@H]([C@@H](C)O)NC(=O)[C@H](CCN)NC(=O)[C@H](CCN)NC1=O [DESFA-[LYS1]POLYMYXIN B]
1 µM (≈ 1.09 µg/mL)	64 µM (≈ 70 µg/mL)	>= 32 nmol/ml	64 µM (≈ 70 µg/mL)	CC(C)C[C@@H]1NC(=O)[C@@H](Cc2ccccc2)NC(=O)[C@H](CCN)NC(=O)[C@@H](NC(=O)[C@H](CCN)NC(=O)[C@@H](NC(=O)[C@H](CO)NC(=O)O)[C@@H](C)O)CCNC(=O)[C@H]([C@@H](C)O)NC(=O)[C@H](CCN)NC(=O)[C@H](CCN)NC1=O [DESFA-[SER1]POLYMYXIN B]
